Experiments:
T-cell = test: cells; conditions: Homo sapiens
Description: Inhibition of IL2-induced proliferation of human T cells assessed as [3H]thymidine incorporation after 72 hrs by scintillation counting

[1] = target: Tyrosine-protein kinase JAK1 (Homo sapiens, UniProt P23458)
HFF = test: cells; conditions: Homo sapiens
Description: Inhibition of fetal calf serum-induced proliferation of human foreskin fibroblast assessed as [3H]thymidine incorporation after 4 days by scintillation counting

[2] = target: Tyrosine-protein kinase JAK2 (Homo sapiens, UniProt O60674)
cells = conditions: Homo sapiens, HUO3
Description: Inhibition of human GM-CSF-induced proliferation in human HUO3 cells assessed as [3H]thymidine incorporation after 4 days by scintillation counting

Tyrosine-protein kinase JAK2, sequence (O60674 whole entry): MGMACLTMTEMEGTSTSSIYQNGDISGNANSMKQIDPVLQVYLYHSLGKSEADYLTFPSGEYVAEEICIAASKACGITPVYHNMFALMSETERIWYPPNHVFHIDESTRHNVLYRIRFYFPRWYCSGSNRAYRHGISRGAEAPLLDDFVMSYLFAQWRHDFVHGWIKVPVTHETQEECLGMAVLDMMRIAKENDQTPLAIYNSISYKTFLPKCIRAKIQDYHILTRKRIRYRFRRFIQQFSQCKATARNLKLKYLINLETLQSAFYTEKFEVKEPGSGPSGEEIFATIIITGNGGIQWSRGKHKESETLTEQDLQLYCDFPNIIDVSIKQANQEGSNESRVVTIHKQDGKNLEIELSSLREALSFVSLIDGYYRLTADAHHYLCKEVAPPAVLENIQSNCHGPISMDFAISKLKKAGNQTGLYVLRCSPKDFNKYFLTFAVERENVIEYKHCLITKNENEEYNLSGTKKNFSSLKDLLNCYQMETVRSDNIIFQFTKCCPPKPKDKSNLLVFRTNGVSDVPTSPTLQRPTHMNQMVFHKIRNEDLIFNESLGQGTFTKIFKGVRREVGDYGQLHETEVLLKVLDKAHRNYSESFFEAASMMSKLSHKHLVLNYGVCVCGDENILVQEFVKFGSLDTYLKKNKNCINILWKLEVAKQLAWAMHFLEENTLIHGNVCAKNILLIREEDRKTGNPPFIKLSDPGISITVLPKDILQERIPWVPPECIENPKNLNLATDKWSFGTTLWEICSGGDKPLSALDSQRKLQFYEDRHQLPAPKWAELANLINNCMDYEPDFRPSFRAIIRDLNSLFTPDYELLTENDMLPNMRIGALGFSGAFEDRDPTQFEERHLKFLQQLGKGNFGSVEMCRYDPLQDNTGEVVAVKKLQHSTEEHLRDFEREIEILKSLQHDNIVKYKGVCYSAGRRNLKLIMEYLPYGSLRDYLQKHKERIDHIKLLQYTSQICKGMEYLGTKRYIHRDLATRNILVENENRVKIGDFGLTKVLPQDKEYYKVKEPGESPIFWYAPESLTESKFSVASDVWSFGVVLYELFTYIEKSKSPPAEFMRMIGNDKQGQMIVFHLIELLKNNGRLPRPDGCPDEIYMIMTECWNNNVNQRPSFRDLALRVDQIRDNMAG
Tyrosine-protein kinase JAK1, sequence (P23458 whole entry): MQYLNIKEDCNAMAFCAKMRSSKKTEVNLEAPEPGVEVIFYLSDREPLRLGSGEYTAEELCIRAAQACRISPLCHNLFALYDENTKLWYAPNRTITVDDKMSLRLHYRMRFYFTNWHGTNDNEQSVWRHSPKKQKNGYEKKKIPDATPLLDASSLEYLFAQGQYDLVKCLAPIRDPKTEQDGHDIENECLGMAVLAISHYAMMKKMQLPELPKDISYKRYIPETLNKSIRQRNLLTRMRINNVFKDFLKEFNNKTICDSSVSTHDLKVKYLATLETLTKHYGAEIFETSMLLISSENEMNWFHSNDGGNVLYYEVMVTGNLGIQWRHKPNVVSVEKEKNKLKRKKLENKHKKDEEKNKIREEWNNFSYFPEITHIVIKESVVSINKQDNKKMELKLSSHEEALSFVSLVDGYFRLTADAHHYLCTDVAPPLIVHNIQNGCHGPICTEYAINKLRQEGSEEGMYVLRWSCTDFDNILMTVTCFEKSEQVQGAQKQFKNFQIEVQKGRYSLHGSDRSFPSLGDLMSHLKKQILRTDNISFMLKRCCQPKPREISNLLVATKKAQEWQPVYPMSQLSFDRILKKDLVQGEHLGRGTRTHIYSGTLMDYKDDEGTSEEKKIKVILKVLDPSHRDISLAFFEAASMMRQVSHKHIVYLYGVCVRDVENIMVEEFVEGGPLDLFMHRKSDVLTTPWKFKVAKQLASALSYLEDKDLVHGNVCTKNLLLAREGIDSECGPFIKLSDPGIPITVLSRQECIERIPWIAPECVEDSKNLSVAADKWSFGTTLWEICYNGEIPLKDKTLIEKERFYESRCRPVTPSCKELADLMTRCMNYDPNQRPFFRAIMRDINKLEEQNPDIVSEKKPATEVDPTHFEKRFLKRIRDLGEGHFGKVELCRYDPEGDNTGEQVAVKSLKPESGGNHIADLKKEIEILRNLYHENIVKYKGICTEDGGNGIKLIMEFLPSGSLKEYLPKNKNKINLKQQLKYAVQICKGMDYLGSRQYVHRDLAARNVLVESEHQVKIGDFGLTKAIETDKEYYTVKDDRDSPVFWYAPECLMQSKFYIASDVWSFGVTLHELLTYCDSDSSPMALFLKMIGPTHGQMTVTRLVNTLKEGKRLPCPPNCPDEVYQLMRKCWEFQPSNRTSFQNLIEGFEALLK

Compound | IC50 (T-cell) [µM] | IC50 [1] [µM] | IC50 (HFF) [µM] | IC50 [2] [µM] | IC50 (cells) [µM]
COc1cc2ncnc(Nc3ccc(O)c(Br)c3)c2cc1OC | 5.09 | > 10 | 6.34 | > 10 | 
COc1cc2ncnc(Nc3ccc(O)cc3)c2cc1OC [WHI-P131] | > 10 | > 10 |  | > 10 | > 10
c1ccc2c(c1)C1CCCCC1N2c1ncnc2[nH]ccc12 (stereo not given) | 3.69 |  | 10 |  | 
N#C/C(=C\c1ccc(O)c(O)c1)C(=O)NCc1ccccc1 | 3.75 | 3.38 | 5.58 | > 10 | 7.56
